Among the data in the NIST ThermoML archive (doi:10.1016/j.jct.2004.07.024) are mass density and refractive index values, retold here.

SMILES strings stand for the structures. ± gives the expanded uncertainty stated by the source.

The conditions of series [1]: 298.15 K; 101.33 kPa; Liquid.
A short description of series [2]: refractive index (Na D-line) (dimensionless). As to conditions: 293.15 K; 101.33 kPa; Liquid; Standard Abbe refractometry.

Turning to `c1ccccc1` [benzene], the mass density in series [1] turned out to be 873.56 ± 0.35 kg/m3. For the same compound, the refractive index in series [2] is on record as 1.5009 ± 0.0004.
With `C[S+](C)[O-]` [dimethyl sulfoxide], in series [1], the mass density is 1095.62 ± 0.32 kg/m3. Besides, the refractive index in series [2] was determined as 1.4785 ± 0.0004.
For the compound `CCc1ccccc1` [ethylbenzene], the mass density in series [1] stood at 862.44 ± 0.55 kg/m3. The refractive index in series [2] amounted to 1.4962 ± 0.0005.
As to `C=Cc1ccccc1` [styrene], the mass density in series [1] came to 901.51 ± 0.54 kg/m3. Further, in series [2], the refractive index is recorded as 1.546 ± 0.0005.
In the case of `Cc1ccccc1` [toluene], in series [1], the mass density was found to be 862.14 ± 0.94 kg/m3. Besides, the refractive index in series [2] was found to be 1.4965 ± 0.0006.

The term mass density denotes the mass of a sample divided by its volume. One may read the refractive index as a measure of how strongly the sample bends light.
